In patent US20070167438A1, “Treatment of substance abuse” (Wyeth, priority 2006, published 2007):

Test system: Rats
Assay: Open field locomotor activity (distance moved, zones crossed) with or without cocaine
Format: in vivo
Settings: open field 1 hour after dosing, five minute test
Description: Using (9aR,12aS)-4,5,6,7,9,9a,10,11,12,12a-decahydrocyclopenta[c][1,4]diazepino[6,7,1-ij]quinoline hydrochloride (Compound 1) as an example, the Rats were dosed either with vehicle or with cocaine in the presence or absence of Compound 1 (1.7 mg/kg. sc). One hour after dosing (i.p. & s.c.), rats were put in a open field, where distance moved and zones crossed were recorded by the ethovision program.
Animals were brought to the lab room 1 hour before the start of the experiment. Rats were injected with compound(s) 1 hour before being placed in the open field. Rats were then placed in open field, and the test lasted for five minutes.

In the case of Cl.c1cc2c3c(c1)[C@H]1CCC[C@H]1CN3CCNC2 [Compound 1, (9aR,12aS)-4,5,6,7,9,9a,10,11,12,12a-decahydrocyclopenta[c][1,4]diazepino[6,7,1-ij]quinoline hydrochloride], the “reversal of the hyperactivity produced by cocaine” value (Compound 1 1.7 mg/kg sc + cocaine 3 mg/kg ip) is reported as “completely reversed” and the “effect on locomotor activity alone” value (Compound 1 1.7 mg/kg sc + vehicle) is reported as “no effect”.
